Results reported in patent US11883410B2, “Preventative and therapeutic agents for sarcopenia” (NATIONAL UNIVERSITY CORPORATION TOKYO UNIVERSITY OF …, priority 2018, dated 2024).
Read-outs that look alike come from different tables or passages of the source.

Legend:
Format in all cases: in vivo
[1] = system: tail-suspended mice (disuse muscle atrophy of lower limbs); assay: Evaluation of inhibition of muscular atrophy in tail-suspended mice, Part 2; conditions: feed containing 0.01 mass % for 2 weeks during tail-suspension; vs control tail-suspension group
Procedure: (§1) Eight-week-old C57/BL6J male mice (Japan SLC, Inc., Shizuoka, Japan) were subjected to the tail-suspension to obtain mice model with disuse muscle atrophy of their lower limbs.
While the tail-suspension was performed, feed containing 0.01 mass % compound (1), compound (2), compound (3), compound (4), or compound (5) was fed for 2 weeks (compound (1) administration group, compound (2) administration group, compound (3) administration group, compound (4) administration group, and compound (5) administration group). […] The number of tests was n=8 in each group.
(§2) Two weeks after the initiation of the experiment (the initiation of the tail-suspension and the initiation of feeding with the feed that contained the compounds), micro-CT imaging of the mouse hind limbs was performed. The muscle volume at the periphery of the tibia (triceps surae muscle) was measured using 3D volumetric analysis software. Micro-CT imaging was performed using a microfocus X-ray CT system (micro-CT: SMX-90T, manufactured by Shimadzu Corporation).
The midpoint of the fibula in the lower limb of each mouse was determined using 3D images created from the micro-CT images, and the volume of total muscle mass at the measurement area starting from the midpoint was measured. […] The rate of increase was calculated according to the following: (compound administration group−control tail-suspension group)/(normal breeding group−control tail-suspension group)×100.
Furthermore, the gastrocnemius muscle was collected from the mouse hind limb after the tail-suspension, and the wet mass (muscle mass) was measured. […] The rate of increase was calculated according to the following: (compound administration group−control tail-suspension group)/(normal breeding group−control tail-suspension group)×100.
(§3) A Student's t-test was used for the significant difference test.

[2] = system: tail-suspended mice (disuse muscle atrophy of lower limbs); assay: Evaluation of inhibition of muscular atrophy in tail-suspended mice, Part 1; conditions: feed containing 0.01, 0.1 or 0.3 mass % for 2 weeks during tail-suspension; vs control tail-suspension group
Procedure: Eight-week-old C57/BL6J male mice (Japan SLC, Inc., Shizuoka, Japan) were subjected to tail-suspension to obtain mice model with disuse muscle atrophy of their lower limbs.
The tail-suspension was performed according to the description in Skelet Muscle. 2015; 5:34. […] Tail-suspension is known to cause skeletal muscle mass loss and muscle strength loss in the hind limbs, whereby an experimental model with disuse muscle atrophy, which is one type of sarcopenia, can be produced.
During the period of tail-suspension, feed containing 0.01, 0.1, or 0.3 mass % compound (1) was fed for 2 weeks (compound (1) administration groups). […] The number of tests was n=8 in each group.
as §2, with “feeding of” for “feeding with”, “the compound),” for “the compounds),”, “micro-CT (micro-computed tomography)” for “micro-CT”, “(micro-CT: SMX-90T” for “(micro-CT: SMX-90T,”
The midpoint of the fibula in the lower limb of each mouse was determined using 3D images created from the micro-CT images, and the volume of total muscle mass at the measurement area starting from the midpoint was measured. […]

[3] = Evaluation of blood kinetics of compound in mice (mixed feed); conditions: for Cmax / AUC(0-t): male, mouse, po, C57BL/6 mice, plasma, LC/MS; for AUC(0-t): read-out: AUC0-24 h
Procedure: Mixed feed that contained 0.01, 0.1, or 0.3 mass % compound (1) were fed to 7-week-old C57BL/6 mice (male, Charles River Japan Ltd., weight: 20.7-23.7 g) for 13 days.
Blood was collected from the face by using an animal lancet at 10 a.m., 1, 5, and 9 p.m. on day 12 and 10 a.m. on day 13.
About 75 μL of blood was collected into a heparin-coated hematocrit tube. The concentration of the compound in the plasma after centrifugation was measured using liquid chromatography-mass spectrometry (LC/MS).
Since a mouse with a body weight of about 20 g consumes about 4 g of the feed per day (spilling of food is not assumed), the daily intake of the compound is estimated to be 0.4 mg (0.01 mass % mixed feed), 4 mg (0.1 mass % mixed feed), or 12 mg (0.3 mass % mixed feed). The body weight conversion values were 20 mg/kg (0.01 mass % mixed feed), 200 mg/kg (0.1 mass % mixed feed), and 600 mg/kg (0.3 mass % mixed feed).

[4] = system: tail-suspended mice (disuse muscle atrophy of lower limbs); assay: Inhibition of muscular atrophy in tail-suspended mice, Part 3 (feeding started one week after tail-suspension); conditions: feed containing 0.3 mass % for 2 weeks starting one week after tail-suspension; vs control tail-suspension group
Procedure: as §1
One week after tail-suspension, feed that contained 0.3 mass % compound (1) was fed for 2 weeks (compound (1) administration group). […] The number of tests was n=8 in each group.
Micro-CT imaging of the mouse hind limbs was performed before tail suspension, 1 week after suspension, 2 weeks after suspension, and 3 weeks after suspension. The muscle volume at the periphery of the tibia (triceps surae muscle) was measured using 3D volumetric analysis software. Micro-CT imaging was performed using a microfocus X-ray CT system (micro-CT: SMX-90T, manufactured by Shimadzu Corporation).
The midpoint of the fibula in the lower limb of each mouse was determined using 3D images created from the micro-CT images, and the volume of total muscle mass at the measurement area starting from the midpoint was measured.
Furthermore, the gastrocnemius muscle was collected from the mouse hind limb three weeks after the tail-suspension, and the wet mass (muscle mass) was measured.
as §3

[5] = 20 mg/kg, 0.01% mixed feed for 13 days
[6] = 200 mg/kg, 0.1% mixed feed for 13 days
[7] = 600 mg/kg, 0.3% mixed feed for 13 days

| SMILES | muscle volume at the periphery of the tibia (triceps surae muscle), micro-CT (FIG. 6, FIG. 7) [1] | wet mass (muscle mass) of gastrocnemius muscle (FIG. 8, FIG. 9) [1] | muscle volume at the periphery of the tibia (triceps surae muscle), micro-CT (FIG. 2) [2] | wet mass (muscle mass) of gastrocnemius, soleus, tibialis anterior and extensor digitorum longus muscles (FIG. 3) [2] | Cmax [3, 5] [nM] | AUC(0-t) [3, 5] [µM·h] | Cmax [3, 6] [nM] | AUC(0-t) [3, 6] [µM·h] | Cmax [3, 7] [nM] | AUC(0-t) [3, 7] [µM·h] | compound concentration in blood ([3]; mixed feed in the range of 0.01 mass % to 0.3 mass %) | muscle volume change at the periphery of the tibia (triceps surae muscle), micro-CT (FIG. 11) [4] | wet mass (muscle mass) of gastrocnemius muscle three weeks after tail-suspension (FIG. 12) [4] |
| --- | --- | --- | --- | --- | --- | --- | --- | --- | --- | --- | --- | --- | --- |
| c1ccc(C(OC2CCN(CCCc3nnn[nH]3)CC2)c2ccccc2)cc1 [compound (2), 4-(diphenylmethoxy)-1-[3-(2H-tetrazol-5-yl)propyl]piperidine] | did not show significant suppression of muscle mass loss although a tendency toward suppression was observed | did not show a significant difference although a tendency toward suppression of the decrease in the muscle amount was observed | – | – | – | – | – | – | – | – | – | – | – |
| Cn1cccc1C(=O)N1CCN(C(=O)NC2CCN(c3ccc(CCn4ccnn4)cc3)CC2)CC1 [compound (5), 4-((1-methylpyrrol-2-yl)-carbonyl)-N-(1-(4-(2-(1H-1,2,3-triazol-1-yl)-ethyl)-phenyl)-piperidin-4-yl)-1-piperazine carboxamide] | significant suppression of muscle mass loss | significant suppression of the decrease in the muscle amount | – | – | – | – | – | – | – | – | – | – | – |
| Cn1cccc1C(=O)N1CCN(C(=O)Nc2ccc(N3CCC(C(=O)N4CCOCC4)CC3)cc2)CC1 [compound (1), 4-{(1-methyl-1H-pyrrol-2-yl)carbonyl}-N-[4-{4-(4-morpholinylcarbonyl)-1-piperidinyl}phenyl]-1-piperazine carboxamide] | significant suppression of muscle mass loss | significant suppression of the decrease in the muscle amount | significant suppression of muscle mass loss | a tendency to suppress a decrease in the muscle amount in all of the hind limb muscles | 230 | 4.29 | 2210 | 38.3 | 6410 | 104 | dose-dependent increase in the compound concentration in blood | significantly higher muscle amount at week 2 and week 3 | significant therapeutic effect on the muscle amount |
| O=C(Nc1ccc(N2CCC(CCn3cncn3)C2)cc1)N1CCC(=Cc2ccccn2)CC1 (stereo not shown) [compound (4), N-(4-(3-(2-(1H-1,2,4-triazol-1-yl)ethyl)pyrrolidin-1-yl)phenyl)-4-(pyridin-2-ylmethylene)piperidine-1-carboxamide] | significant suppression of muscle mass loss | significant suppression of the decrease in the muscle amount | – | – | – | – | – | – | – | – | – | – | – |
